Experiments:
[1] = biological target: DCAF15 (Homo sapiens, UniProt Q66K64); test: HTRF competition assay, binary interaction between compounds and DCAF15; type: binding; conditions: competition with Alexa Fluor 647 tracer, His-tagged DCAF15 complex
Description: Example 7: Measurement of Binary Interaction Between Compounds And DCAF15 Using Homogeneous Time Resolved Fluorescence (HTRF)
DCAF15 interactions with test compounds were monitored using HTRF competition assays (Cisbio, Bedford, MA). Test compounds were first collected in a 384-well microplate (cat. #781280, Grenier Bio-One, Monroe, NC) as 10 mM stocks in 100% dimethyl sulfoxide (DMSO). A second stock plate (cat. #781280, Grenier Bio-One, Monroe, NC) was prepared through 3-fold serial dilution in DMSO of the afore-mentioned stocks using a Mosquito HTS dispenser (mosquito@ HTS, SPT Labtech, Boston, MA). 0.2 ul of these diluted stocks were then dispensed into a 384-well Optiplate (cat. #6007290, Perkin Elmer, Waltham, MA) in duplicate wells, to assemble the assay plate. The tracer molecule containing an Alexa Fluor 647 probe was prepared in 25 mM HEPES pH 7.5, 100 mM NaCl, 0.1 mg/ml BSA, 0.005% Tween 20, 0.5 mM TCEP (dilution buffer) to 612 nM (2.04×). Separately, His-tagged DCAF15 complex was prepared at 32 nM (4×) in the dilution buffer, and mAb Anti-6His-Eu cryptate Gold (cat. #61H12KLA, Cisbio, Bedford, MA) at 4× dilution in the detection buffer (cat. #61 DB9RDF, Cisbio, Bedford, MA). These two solutions were mixed and incubated for 15 min at room temperature. 9.8 ul of the tracer solution and 10 ul of the DCAF15/mAb Anti-6His-Eu cryptate Gold mixture were added sequentially to each well in the assay plate. Reaction mixtures with no DCAF15 added were included as positive controls. The final mixture was incubated for an hour at room temperature and spun down briefly before data collection at 615 nm and 666 nm using En Vision 2104 Multilabel Plate Reader (Perkin Elmer, Bedford, MA). Binding was estimated based on ratiometric analysis and titration curves were generated in GraphPad Prism (7.00, GraphPad, La Jolla, CA).

[2] = biological target: DCAF15/RBM39 (Homo sapiens, UniProt Q14498+Q66K64); test: AlphaLISA compound-induced DCAF15-RBM39 ternary complex formation; type: binding; conditions: His-tagged DCAF15 complex and biotin-carrying RBM39
Description: Example 6: Quantitative Evaluation of Compound-Induced Ternary Complex Formation Using Amplified Luminescent Proximity Homogeneous Assay
Compound-induced DCAF15-RBM39 ternary complex formation was monitored using AlphaLISA® assays (Perkin Elmer, Waltham, MA). Test compounds were first collected in a 384-well microplate (cat. #781280, Grenier Bio-One, Monroe, NC) as 2 mM stocks in 100% dimethyl sulfoxide (DMSO). These stocks were then serially diluted in DMSO by 3-fold into a new plate (cat. #781280, Grenier Bio-One, Monroe, NC) using a Mosquito HTS dispenser (mosquito@ HTS, SPT Labtech, Boston, MA). 0.2 ul of these diluted stocks were then dispensed into a 384-well Optiplate (cat. #6007290, Perkin Elmer, Waltham, MA) in duplicate wells, to assemble the final assay plate consisting of duplicated dose ranges. Separately, a protein mixture consisting of His-tagged DCAF15 complex and biotin-carrying RBM39, each at 408 nM (2.04×), was prepared in 50 mM HEPES, pH 7.5, 100 mM NaCl, 2 mM MgCl2, 0.1% BSA, 2 mM TCEP, 0.05% Tween-20 (dilution buffer). 9.8 ul of this protein mixture was then mixed with the compounds in the assay plate and incubated for one hour at room temperature. Reaction mixtures with no compounds added were included as negative controls, while a His-tagged and biotinylated GST protein was included to track general assay performance. Nickel Chelate AlphaLISA Acceptor beads (cat. #AL108M, Perkin Elmer, MA) and AlphaScreen Streptavidin Donor beads (cat. #6760002, Perkin Elmer, Waltham, MA) were prepared separately in the dilution buffer as 4× stocks (80 ug/ml). The beads were then added to the assay plate sequentially with incubation at room temperature for 1-2 hours after each addition. Signals were recorded using EnVision 2104 Multilabel Plate Reader (Perkin Elmer, Waltham, MA) and titration curves were generated in GraphPad Prism (7.00, GraphPad, La Jolla, CA).

| Compound | IC50 [1] [µM] | EC50 [2] [µM] |
| --- | --- | --- |
| NCCc1ccc(COc2cccc(S(=O)(=O)Nc3ccc(Cl)c4c(Cl)c[nH]c34)c2)cc1 [Compound 59] | 10 to 100 | 1 to 10 |
| Cc1nc(-c2ccc(COc3cccc(S(=O)(=O)Nc4ccc(Cl)c5c(Cl)c[nH]c45)c3)cc2)no1 [Compound 63] | > 100 | 1 to 10 |
| O=S(=O)(Nc1ccc(Cl)c2c(Cl)c[nH]c12)c1cccc(OCc2ccc3c(c2)CNC3)c1 [Compound 65] | > 100 | < 1 |
| CC1(CCOc2cccc(S(=O)(=O)Nc3ccc(Cl)c4c(Cl)c[nH]c34)c2)CCNCC1 [Compound 74] | 10 to 100 | < 1 |
| CC1(CCOc2ccc(S(=O)(=O)Nc3ccc(Cl)c4c(Cl)c[nH]c34)cc2)CCNCC1 [Compound 75] | 1 to 10 | < 1 |
| O=S(=O)(Nc1ccc(Cl)c2c(Cl)c[nH]c12)c1cccc(OCCC[C@@H]2CCCN2)c1 [Compound 96] | > 100 | < 1 |
| O=S(=O)(Nc1ccc(Cl)c2c(Cl)c[nH]c12)c1ccc(OCCC[C@@H]2CCCN2)cc1 [Compound 97] | 1 to 10 | < 1 |
| CCc1cnc(N2CCC(CCCOc3cccc(S(=O)(=O)Nc4ccc(Cl)c5c(Cl)c[nH]c45)c3)CC2)nc1 [Compound 100] | > 100 | > 100 |
| O=S(=O)(Nc1ccc(Cl)c2c(Cl)c[nH]c12)c1cccc(OCCCN2CC3(COC3)C2)c1 [Compound 108] | > 100 | < 1 |
| O=c1oc2ccccc2n1CCCOc1cccc(S(=O)(=O)Nc2ccc(Cl)c3c(Cl)c[nH]c23)c1 [Compound 112] | > 100 | 1 to 10 |
| CNCCCCCCOc1ccc(S(=O)(=O)Nc2ccc(Cl)c3c(Cl)c[nH]c23)cc1 [Compound 148] | 1 to 10 | < 1 |
| O=C(N[C@H]1CCc2ccccc21)c1ccc(S(=O)(=O)Nc2ccc(Cl)c3c(Cl)c[nH]c23)c(F)c1 [Compound 155] | > 100 | > 100 |
| O=C1CC[C@H](NC(=O)c2cccc(S(=O)(=O)Nc3ccc(Cl)c4c(Cl)c[nH]c34)c2F)CN1 [Compound 156] | 1 to 10 | < 1 |
| O=C(N[C@H]1CCCCNC1=O)c1cccc(S(=O)(=O)Nc2ccc(Cl)c3c(Cl)c[nH]c23)c1F [Compound 160] | < 1 | < 1 |
| CC(C)(C)OC(=O)NC1(CNC(=O)c2cccc(S(=O)(=O)Nc3ccc(Cl)c4c(Cl)c[nH]c34)c2F)CC1 [Compound 162] | 1 to 10 | 1 to 10 |
| CC(C)(C)OC(=O)NC1(CNC(=O)c2ccc(S(=O)(=O)Nc3ccc(Cl)c4c(Cl)c[nH]c34)c(F)c2)CC1 [Compound 163] | 1 to 10 | 1 to 10 |
| O=C(NC[C@H]1Cc2ccccc21)c1cccc(S(=O)(=O)Nc2ccc(Cl)c3c(Cl)c[nH]c23)c1F [Compound 164] | 1 to 10 | 1 to 10 |
| O=C(NCC1CCN(CCCc2ccccc2)CC1)c1ccc(S(=O)(=O)Nc2ccc(Cl)c3c(Cl)c[nH]c23)c(F)c1 [Compound 167] | < 1 | < 1 |

Second part, the compound after the results:

| IC50 [1] [µM] | EC50 [2] [µM] | Compound |
| --- | --- | --- |
| 1 to 10 | 1 to 10 | NCCc1ccc(COc2ccc(S(=O)(=O)Nc3ccc(Cl)c4c(Cl)c[nH]c34)cc2)cc1 [Compound 60] |
| > 100 | > 100 | Cc1nc(-c2ccc(COc3ccc(S(=O)(=O)Nc4ccc(Cl)c5c(Cl)c[nH]c45)cc3)cc2)no1 [Compound 64] |
| 1 to 10 | < 1 | O=S(=O)(Nc1ccc(Cl)c2c(Cl)c[nH]c12)c1ccc(OCc2ccc3c(c2)CNC3)cc1 [Compound 66] |
| 1 to 10 | < 1 | Cn1ncnc1COc1ccc(S(=O)(=O)Nc2ccc(Cl)c3c(Cl)c[nH]c23)cc1 [Compound 67] |
| > 100 | < 1 | Cn1nnc2cc(COc3ccc(S(=O)(=O)Nc4ccc(Cl)c5c(Cl)c[nH]c45)cc3)ccc21 [Compound 68] |
| > 100 | 1 to 10 | CS(=O)(=O)c1ccc(CCOc2cccc(S(=O)(=O)Nc3ccc(Cl)c4c(Cl)c[nH]c34)c2)cc1 [Compound 76] |
| > 100 | 1 to 10 | CS(=O)(=O)c1ccc(CCOc2ccc(S(=O)(=O)Nc3ccc(Cl)c4c(Cl)c[nH]c34)cc2)cc1 [Compound 77] |
| > 100 | 10 to 100 | Cn1cc(CCOc2cccc(S(=O)(=O)Nc3ccc(Cl)c4c(Cl)c[nH]c34)c2)c2ccccc21 [Compound 92] |
| > 100 | > 100 | Cn1cc(CCOc2ccc(S(=O)(=O)Nc3ccc(Cl)c4c(Cl)c[nH]c34)cc2)c2ccccc21 [Compound 93] |
| 10 to 100 | 1 to 10 | O=S(=O)(Nc1ccc(Cl)c2c(Cl)c[nH]c12)c1cccc(OCCCC2CCNCC2)c1 [Compound 98] |
| 1 to 10 | < 1 | O=S(=O)(Nc1ccc(Cl)c2c(Cl)c[nH]c12)c1ccc(OCCCC2CCNCC2)cc1 [Compound 99] |
| 10 to 100 | < 1 | CN1CCN(CCCOc2cccc(S(=O)(=O)Nc3ccc(Cl)c4c(Cl)c[nH]c34)c2)CC1 [Compound 104] |
| > 100 | > 100 | O=S(=O)(Nc1ccc(Cl)c2c(Cl)c[nH]c12)c1ccc(OCCCc2ccc3c(c2)OCO3)cc1 [Compound 110] |
| > 100 | > 100 | O=S(=O)(Nc1ccc(Cl)c2c(Cl)c[nH]c12)c1cccc(OCCCc2ccc3c(c2)OCO3)c1 [Compound 111] |
| > 100 | 1 to 10 | O=c1oc2ccccc2n1CCCOc1ccc(S(=O)(=O)Nc2ccc(Cl)c3c(Cl)c[nH]c23)cc1 [Compound 113] |
| > 100 | 1 to 10 | O=S(=O)(Nc1ccc(Cl)c2c(Cl)c[nH]c12)c1cccc(OCCCN2CCCc3ccccc32)c1 [Compound 114] |
| 1 to 10 | 1 to 10 | O=S(=O)(Nc1ccc(Cl)c2c(Cl)c[nH]c12)c1ccc(OCCCCc2ccccn2)cc1 [Compound 140] |
| 1 to 10 | < 1 | CNCCCCCOc1ccc(S(=O)(=O)Nc2ccc(Cl)c3c(Cl)c[nH]c23)cc1 [Compound 144] |
| < 1 | < 1 | O=C1CC[C@H](NC(=O)c2ccc(S(=O)(=O)Nc3ccc(Cl)c4c(Cl)c[nH]c34)c(F)c2)CN1 [Compound 157] |
| < 1 | < 1 | CN1C[C@@H](NC(=O)c2cccc(S(=O)(=O)Nc3ccc(Cl)c4c(Cl)c[nH]c34)c2F)CCC1=O [Compound 158] |
| < 1 | < 1 | CN1C[C@@H](NC(=O)c2ccc(S(=O)(=O)Nc3ccc(Cl)c4c(Cl)c[nH]c34)c(F)c2)CCC1=O [Compound 159] |
| < 1 | < 1 | O=C(N[C@H]1CCCCNC1=O)c1ccc(S(=O)(=O)Nc2ccc(Cl)c3c(Cl)c[nH]c23)c(F)c1 [Compound 161] |
| > 100 | > 100 | O=C(NC[C@H]1Cc2ccccc21)c1ccc(S(=O)(=O)Nc2ccc(Cl)c3c(Cl)c[nH]c23)c(F)c1 [Compound 165] |
| 1 to 10 | < 1 | O=C(NCC1CCN(CCCc2ccccc2)CC1)c1cccc(S(=O)(=O)Nc2ccc(Cl)c3c(Cl)c[nH]c23)c1F [Compound 166] |
| 1 to 10 | 1 to 10 | CC(C)C(=O)Nc1cccc(CNC(=O)c2cccc(S(=O)(=O)Nc3ccc(Cl)c4c(Cl)c[nH]c34)c2F)c1 [Compound 168] |
| 1 to 10 | 1 to 10 | CC(C)C(=O)Nc1cccc(CNC(=O)c2ccc(S(=O)(=O)Nc3ccc(Cl)c4c(Cl)c[nH]c34)c(F)c2)c1 [Compound 169] |

Reference: patent US20240327351A1, “AMIDE AND ETHER SUBSTITUTED N-(1H-INDOL-7-YL)BENZENESULFONAMIDES AND USES THEREOF” (TRIANA BIOMEDICINES, INC., priority 2021, published 2024)
